Laboratory results as given in ChEMBL document CHEMBL5034031, “Discovery of Next-Generation Tropomyosin Receptor Kinase Inhibitors for Combating Multiple Resistance Associated with Protein Mutation” (J Med Chem, 2021).

What was measured:
BaF3 [1] = experiment: Antiproliferative activity against mouse BaF3 cells transfected with ETV6-wild type TRKC assessed as cell viability incubated for 72 hrs by CCK8 assay; format: functional, cell-based; conditions: BaF3, 72 h
BaF3 [2] = experiment: Antiproliferative activity against mouse BaF3 cells transfected with ETV6-wild type TRKB assessed as cell viability incubated for 72 hrs by CCK8 assay; format: functional, cell-based; conditions: BaF3, 72 h
BaF3 [3] = experiment: Antiproliferative activity against mouse BaF3 cells transfected with ETV6-wild type TRKA assessed as cell viability incubated for 72 hrs by CCK8 assay; format: functional, cell-based; conditions: BaF3, 72 h
BaF3 [4] = format: functional, cell-based; conditions: Mus musculus, BaF3, 72 h
BaF3 [5] = experiment: animal or person; format: functional; conditions: Mus musculus, BaF3, po; read-out: TGI
[6] = Metabolic stability in human liver microsomes assessed as half life at 1 uM measured upto 90 mins in presence of NADPH regenerating system by LC-MS/MS analysis; format: ADME, Microsome
BaF3 [7] = experiment: animal or person; format: functional; conditions: Mus musculus, BaF3, po; read-out: TGI; remark: listed apart in the source

C[C@@H]1CCc2ncc(F)cc2[C@H]2CCCN2c2ccn3ncc(c3n2)C(=O)N1 [SELITRECTINIB]
IC50 (BaF3 [1]): 1.6 nM
IC50 (BaF3 [2]): 1.4 nM
IC50 (BaF3 [3]): 1.1 nM
IC50 (BaF3 [4]): 72.6 nM
inhibition in vivo at 100 mg/kg (BaF3 [5]): 64%

Cn1cc(-c2cnn3ccc(N4CCC[C@@H]4c4cc(F)ccc4OCC(F)F)nc23)cn1
half-life at 1 µM [6]: 8.3 min

Cn1cc(-c2cnn3ccc(N4CCC[C@@H]4c4cc(F)ccc4F)nc23)cn1
half-life at 1 µM [6]: 3 min

O=C(Nc1cnn2ccc(N3CCC[C@@H]3c3cc(F)ccc3F)nc12)N1CC[C@H](O)C1 [LAROTRECTINIB]
half-life at 1 µM [6]: 365 min
inhibition in vivo at 15 mg/kg (BaF3 [7]): 70%

C[C@@H](Nc1ccn2ncc(-c3cnn(C)c3)c2n1)c1cc(F)ccc1OCC(F)F
half-life at 1 µM [6]: 32.4 min
